Results as given in patent US10738080B2, “Inhibitors of beta integrin-G protein alpha subunit binding interactions” (priority 2010, dated 2020).
Entries after “also recorded” stand apart in the source; their conditions may differ. Where two headings read alike, the source gives them in different places. No end group written: not given here. *: point of attachment. Myristoyl = CCCCCCCCCCCCCC(=O)*

Assays:
human platelets [1] = conditions: PAR4AP 50 μM, 250 μM peptide (150 μM also in FIG. 17G)
Description: Washed human or mouse platelets resuspended in modified Tyrode's buffer (3×10^8/ml, 50 μl) were incubated with 10 μg/ml Oregon Green^488-conjugated fibrinogen (Molecular Probes) and 50 μM PAR4AP for 30 minutes at 22° C. as previously described^26. The reaction was diluted with 0.5 ml of PBS and analyzed by flow cytometry using FACS Caliber (BD Biosciences, San Jose, Calif.).

mouse platelets = conditions: 30 μM peptide
Description: (§1) Platelet aggregation assays were carried out as follows: Platelet aggregation and secretion was measured in a turbidometric platelet aggregometer (Chronolog) at 37° C. with stirring (1000 rpm). Washed platelets (3×10^8/ml) in modified Tyrode's buffer were stimulated with thrombin (Enzyme Research Laboratories). For talin knockdown platelet aggregation assay stimulated with manganese and ADP, manganese and ADP was mixed prior to experiment to achieve final concentration of 1 mM manganese and 5 μM ADP in reaction tube. Aggregation traces shown are representative of at least three independent experiments.

platelets = conditions: ATP secretion
Description: as §1

human platelets [2] = assay type: cell-based; conditions: for integrin outside-in signaling (early phase): human platelets on fibrinogen, 250 μM peptide; for platelet spreading on fibrinogen: human platelets, immobilized fibrinogen
Description: The clots were photographed at various time points. […] Statistical significance was determined using t-test.
Studies using human platelets were approved by institutional review board of University of Illinois at Chicago.
Coverslides were pre-coated with 100 μg/ml fibrinogen and blocked with 5% BSA in PBS. 300 μl αIIbβ3-expressing CHO cells (expressing WT or mutant integrins; 1×10^5/ml) or platelets (1×10^7/ml) suspended in Tyrode's buffer were added to coverslides and incubated at 37° C. for various lengths of time. Cells were fixed with 4% paraformaldehyde (PFA) for 10 minutes and permeabilized with 0.1% Triton X-100 in PBS for 2 minutes. After blocking with 5% BSA for 10 minutes, coverslides were incubated with 0.2 μg/ml mAb 15, or Alexa Fluor-546 conjugated phalloidin. For mouse platelets re-express wild type β3 or the AAA mutant of β3, β3 was immuno-stained with the anti-β3 monoclonal antibody MAb 15 and Alexa Fluor-546 conjugated phalloidin. The slides were scanned with a Zeiss LSM5 10 META confocal microscope as previously described^11

human platelets [3] = tested on: human platelets
Description: as §1
Platelet aggregation assays were performed with myristoylated peptide mP5, myristoylated peptide of SEQ: ID NO: 87, or their respective scarmbled control peptides, as essentially described herein. Briefly, washed human platelets were preincubated with 25, 50, 100, 250, or 500 μM peptide solubilized in DMSO.

[4] = molecular target: talin association with β3 (Homo sapiens, UniProt Q9Y490); conditions: 500 μM peptide, 0.025 U/ml thrombin at 22° C.
Chain of talin association with β3 (Q9Y490 whole entry): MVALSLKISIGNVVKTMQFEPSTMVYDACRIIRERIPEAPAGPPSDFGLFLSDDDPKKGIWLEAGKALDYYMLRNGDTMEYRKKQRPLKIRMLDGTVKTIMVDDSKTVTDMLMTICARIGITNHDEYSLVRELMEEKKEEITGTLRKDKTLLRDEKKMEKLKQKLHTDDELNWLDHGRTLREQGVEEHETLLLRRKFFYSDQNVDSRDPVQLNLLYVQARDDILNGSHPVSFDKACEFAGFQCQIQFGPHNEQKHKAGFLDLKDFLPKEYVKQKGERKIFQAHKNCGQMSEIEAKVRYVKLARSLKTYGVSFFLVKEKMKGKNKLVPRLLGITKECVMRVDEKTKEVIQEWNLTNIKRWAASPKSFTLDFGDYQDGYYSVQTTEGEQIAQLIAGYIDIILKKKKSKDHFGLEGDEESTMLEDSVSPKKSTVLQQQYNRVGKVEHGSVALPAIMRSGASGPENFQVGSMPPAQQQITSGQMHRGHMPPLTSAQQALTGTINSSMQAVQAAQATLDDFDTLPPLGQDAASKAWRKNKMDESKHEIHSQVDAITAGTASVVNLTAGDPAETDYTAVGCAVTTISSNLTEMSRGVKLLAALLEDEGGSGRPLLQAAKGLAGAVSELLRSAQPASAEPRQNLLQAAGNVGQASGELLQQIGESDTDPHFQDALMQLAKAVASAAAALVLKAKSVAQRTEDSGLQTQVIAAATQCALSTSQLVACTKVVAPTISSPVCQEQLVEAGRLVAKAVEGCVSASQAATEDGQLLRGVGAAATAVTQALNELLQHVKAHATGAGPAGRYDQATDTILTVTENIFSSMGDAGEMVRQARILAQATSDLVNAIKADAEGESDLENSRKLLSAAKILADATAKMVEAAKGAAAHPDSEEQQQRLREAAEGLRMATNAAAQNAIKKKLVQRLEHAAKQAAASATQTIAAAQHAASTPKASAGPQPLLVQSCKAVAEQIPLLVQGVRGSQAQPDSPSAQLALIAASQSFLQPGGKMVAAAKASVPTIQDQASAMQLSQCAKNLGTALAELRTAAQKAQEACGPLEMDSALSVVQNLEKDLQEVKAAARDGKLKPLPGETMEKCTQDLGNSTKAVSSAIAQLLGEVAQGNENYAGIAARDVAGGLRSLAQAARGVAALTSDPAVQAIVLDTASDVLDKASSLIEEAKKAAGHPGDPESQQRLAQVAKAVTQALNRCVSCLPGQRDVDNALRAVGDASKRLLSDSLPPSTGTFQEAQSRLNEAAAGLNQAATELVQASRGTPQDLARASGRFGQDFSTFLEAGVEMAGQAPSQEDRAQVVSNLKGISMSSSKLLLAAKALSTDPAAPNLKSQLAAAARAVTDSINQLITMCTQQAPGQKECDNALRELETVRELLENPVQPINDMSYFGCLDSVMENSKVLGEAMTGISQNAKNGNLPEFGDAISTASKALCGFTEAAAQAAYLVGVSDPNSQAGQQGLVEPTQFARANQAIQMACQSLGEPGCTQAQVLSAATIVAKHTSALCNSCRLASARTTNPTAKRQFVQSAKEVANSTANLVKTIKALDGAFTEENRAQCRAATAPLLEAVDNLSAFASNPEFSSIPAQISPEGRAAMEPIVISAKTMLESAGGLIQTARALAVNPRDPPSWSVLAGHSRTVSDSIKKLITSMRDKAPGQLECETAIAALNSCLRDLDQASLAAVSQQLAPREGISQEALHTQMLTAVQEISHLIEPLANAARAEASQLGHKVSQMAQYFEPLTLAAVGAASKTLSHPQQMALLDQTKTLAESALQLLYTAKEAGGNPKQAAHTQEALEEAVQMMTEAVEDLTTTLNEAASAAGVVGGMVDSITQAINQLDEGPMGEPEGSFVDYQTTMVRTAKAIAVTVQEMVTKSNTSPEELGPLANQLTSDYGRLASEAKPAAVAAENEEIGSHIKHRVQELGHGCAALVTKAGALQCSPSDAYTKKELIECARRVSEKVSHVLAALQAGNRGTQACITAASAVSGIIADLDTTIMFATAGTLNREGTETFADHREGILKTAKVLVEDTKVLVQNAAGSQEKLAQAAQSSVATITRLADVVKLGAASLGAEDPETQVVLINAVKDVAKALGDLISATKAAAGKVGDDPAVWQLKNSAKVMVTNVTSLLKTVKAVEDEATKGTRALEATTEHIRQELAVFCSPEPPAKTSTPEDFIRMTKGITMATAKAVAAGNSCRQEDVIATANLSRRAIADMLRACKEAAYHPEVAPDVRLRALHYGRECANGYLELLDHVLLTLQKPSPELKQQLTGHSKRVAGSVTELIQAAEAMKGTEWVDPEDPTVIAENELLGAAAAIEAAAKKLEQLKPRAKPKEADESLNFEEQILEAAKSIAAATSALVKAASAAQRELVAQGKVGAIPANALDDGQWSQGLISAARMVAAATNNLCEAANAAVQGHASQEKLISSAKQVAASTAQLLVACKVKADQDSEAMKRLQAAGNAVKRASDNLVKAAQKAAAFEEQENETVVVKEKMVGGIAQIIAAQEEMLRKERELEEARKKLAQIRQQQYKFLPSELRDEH
Description: Cell lysates were incubated with rabbit anti-Gα13 IgG (1.5 μg/ml), anti-integrin β3 rabbit serum (5 μl/ml) or an equal amount of rabbit IgG or pre-immune serum at 4° C. overnight, and subsequently with protein A-conjugated Sepharose beads for 1 hour. For the integrin β3 clustering experiment, human platelets (3×10^8) were stimulated with 0.025 U/ml α-thrombin for 2 minutes at room temperature (to avoid platelet aggregation) with or without 2 mM RGDS, then incubated with 5 μl anti-integrin β3 8053 rabbit serum at room temperature for 1 hour, and 5 μg goat anti-rabbit secondary antibody for another 1 hour. Platelets were then solubilized in modified RIPA Buffer. For the un-clustering control and pre-immune serum control, cells were solubilized in modified RIPA Buffer first, than incubated with 5 μl 8053 serum or pre-immune serum. After 3-6 washes with lysis buffer, immunoprecipitates were analyzed by SDS-polyacrylamide gel electrophoresis and Western blots using antibodies against β3, talin, or Gα13. In some experiments, 500 μM control or inhibitor peptides, mP5, mP7 and mP13 were incubated with platelet lysates prior to immunoprecipitation, or 2 mM RGDS was added into washed human platelets before stimulation by 0.025 U/ml α-thrombin. GST bead pull down analysis was previously described^8. […] Bead-bound proteins were analyzed by immunoblotting.

human platelets [5] = conditions: resting platelets, 250 μM peptide
Description: Platelet Adhesion Assays were carried out as follows: As described before(6), microtiter wells were coated with 30 μg/ml fibrinogen in PBS overnight. Washed human platelets in modified Tyrode's buffer in the absence or presence of 1 mM MnCl2 were incubated in the microtiter wells for one hour at 37° C. in a CO2 incubator. After 3 washes, 50 μl of reaction buffer (0.3% p-nitrophenyl phosphate (Sigma) in 1% Triton-X-100, 50 mM sodium acetate, pH 5.0) was added into each microtiter well and incubated at 37° C. for one hour. The reaction was stopped by adding 50 μl of 1 M NaOH. Results were determined by reading OD at 405 nm wave length. The percentage of platelet adhesion was estimated from the ratio of the readings of adherent platelets to that of total platelets. Statistic significance was determined using t test (n=3).

| Substance | agonist (PAR4AP)-induced fibrinogen binding to platelets (inside-out signaling) (human platelets [1]) | agonist (PAR4AP)-induced fibrinogen binding to platelets (inside-out signaling) (human platelets [1]; listed as Myr-P5) | platelets aggregation induced by thrombin (mouse platelets) | platelet granule secretion (platelets) | integrin outside-in signaling (early phase) (human platelets [2]) | platelet spreading on fibrinogen (human platelets [2]) | platelet spreading on fibrinogen (human platelets [2]; listed as Myr-P5) | platelet aggregation induced by thrombin (human platelets [3]) | second wave of platelet aggregation (human platelets [3]) | platelets aggregation induced by thrombin (human platelets [3]; 30 μM peptide, human platelets) | platelets aggregation induced by thrombin (human platelets [3]; 200 μM peptide) | talin association with β3 [4] | platelet adhesion to immobilized fibrinogen (human platelets [5]) | thrombin-promoted platelet spreading (human platelets [2]; 0.01 U/ml thrombin) |
| --- | --- | --- | --- | --- | --- | --- | --- | --- | --- | --- | --- | --- | --- | --- |
| Myr-EEERA [mP5] | no effect | without affecting | inhibited | inhibited | selectively inhibited | abolished; also recorded: inhibited | inhibited | inhibited | inhibited | inhibited | inhibited | not | nor does it affect |  |
| Myristoyl-KFEEERA [mP7] |  |  |  |  |  | abolished |  |  |  |  |  |  |  |  |
| Myristoyl-KFEEERARAKWDT [mP13] |  |  |  |  | inhibited | abolished |  |  |  |  |  | inhibited | inhibited |  |
| Myristoyl-LLARRPTKGIHEY [mSRI] |  |  |  |  |  | inhibited |  |  |  |  |  |  |  | abolished |
